The source made the active and inactive calls. How the calls were made is not given here.

The subject of the data set is CCRIS mutagenicity, Ames/micronucleus/aberration tests. The experiment in a line: CCRIS mutagenicity studies.
[1] abbreviates: Test System: AMES SALMONELLA TYPHIMURIUM, Strain/Indicator: TA98, Metabolic Activation: NONE, Method: STANDARD PLATE.
[2] abbreviates: Test System: AMES SALMONELLA TYPHIMURIUM, Strain/Indicator: TA100, Metabolic Activation: NONE, Method: PREINCUBATION
The mark [3] stands for this setting: Test System: AMES SALMONELLA TYPHIMURIUM, Strain/Indicator: TA97, Metabolic Activation: NONE, Method: PREINCUBATION
Where [4] appears, read: Test System: AMES SALMONELLA TYPHIMURIUM, Strain/Indicator: TA98, Metabolic Activation: NONE, Method: PREINCUBATION

In the case of `OC1C=CC=CC1O` (configuration not stated), the mutagenic call was “inactive; negative” under setting [1]; “inactive; negative” (Test System: AMES SALMONELLA TYPHIMURIUM, Strain/Indicator: TA98, Metabolic Activation: RAT, LIVER, S-9, PHENOBARBITAL, Method: STANDARD PLATE); “inactive; negative” under setting [2]; “inactive; negative” (Test System: AMES SALMONELLA TYPHIMURIUM, Strain/Indicator: TA100, Metabolic Activation: NONE, Method: STANDARD PLATE); “active; positive” (Test System: AMES SALMONELLA TYPHIMURIUM, Strain/Indicator: TA100, Metabolic Activation: RAT, LIVER, S-9, PHENOBARBITAL, Method: PREINCUBATION); “active; positive” (Test System: AMES SALMONELLA TYPHIMURIUM, Strain/Indicator: TA100, Metabolic Activation: RAT, LIVER, S-9, PHENOBARBITAL, Method: STANDARD PLATE). The mutagenic call runs as follows: (Test System: AMES SALMONELLA TYPHIMURIUM, Strain/Indicator: TM677/8-AZAGUANINE, Metabolic Activation: NONE, Method: PREINCUBATION) “inactive; negative”; (Test System: AMES SALMONELLA TYPHIMURIUM, Strain/Indicator: TM677/8-AZAGUANINE, Metabolic Activation: NONE, Method: STANDARD PLATE) “active; positive”; (Test System: AMES SALMONELLA TYPHIMURIUM, Strain/Indicator: TM677/8-AZAGUANINE, Metabolic Activation: RAT, LIVER, S-9, PHENOBARBITAL, Method: PREINCUBATION) “active; positive”.

Turning to `ClCC1(CCl)[C@H]2CC(Cl)(Cl)[C@]1(CCl)[C@@H](Cl)[C@@H]2Cl`, the mutagenic call under setting [2] is “inactive; negative”.

As for `COc1cc(C(C)=O)ccc1O`, the mutagenic call is “inactive; negative” under setting [3]; “inactive; negative” (Test System: AMES SALMONELLA TYPHIMURIUM, Strain/Indicator: TA97, Metabolic Activation: RAT, LIVER, S-9, AROCLOR 1254, Method: PREINCUBATION); “inactive; negative” under setting [4]; “inactive; negative” (Test System: AMES SALMONELLA TYPHIMURIUM, Strain/Indicator: TA98, Metabolic Activation: RAT, LIVER, S-9, AROCLOR 1254, Method: PREINCUBATION); “inactive; negative” under setting [2]; “inactive; negative” (Test System: AMES SALMONELLA TYPHIMURIUM, Strain/Indicator: TA100, Metabolic Activation: RAT, LIVER, S-9, AROCLOR 1254, Method: PREINCUBATION). The mutagenic call is “inactive; negative” (Test System: AMES SALMONELLA TYPHIMURIUM, Strain/Indicator: TA102, Metabolic Activation: NONE, Method: PREINCUBATION) and “inactive; negative” (Test System: AMES SALMONELLA TYPHIMURIUM, Strain/Indicator: TA102, Metabolic Activation: RAT, LIVER, S-9, AROCLOR 1254, Method: PREINCUBATION).

In the case of `O/N=C/c1ccccn1`, the mutagenic call is, setting by setting: (Test System: AMES SALMONELLA TYPHIMURIUM, Strain/Indicator: TA102, Metabolic Activation: RAT, LIVER, S-9, PHENOBARBITAL AND 5,6-BENZOFLAVONE, Method: STANDARD PLATE) “inactive; negative”; (Test System: AMES SALMONELLA TYPHIMURIUM, Strain/Indicator: TA2638, Metabolic Activation: RAT, LIVER, S-9, PHENOBARBITAL AND 5,6-BENZOFLAVONE, Method: STANDARD PLATE) “inactive; negative”; (Test System: E. COLI, Strain/Indicator: WP2 (PKM101), Metabolic Activation: RAT, LIVER, S-9, PHENOBARBITAL AND 5,6-BENZOFLAVONE, Method: STANDARD PLATE) “inactive; negative”; (Test System: E. COLI, Strain/Indicator: WP2 UVRA (PKM101), Metabolic Activation: RAT, LIVER, S-9, PHENOBARBITAL AND 5,6-BENZOFLAVONE, Method: STANDARD PLATE) “active; positive”.

As to `c1ccc2c(c1)ncc1cnc3ccccc3c12`, the mutagenic call is, setting by setting: under setting [1], “inactive; negative”; (Test System: AMES SALMONELLA TYPHIMURIUM, Strain/Indicator: TA98, Metabolic Activation: RAT LIVER S-9, AROCLOR 1254, Method: STANDARD PLATE) “inactive; negative”; (Test System: E.COLI, Strain/Indicator: WP2, Metabolic Activation: NONE, Method: SPOT TEST) “inactive; negative”; (Test System: E.COLI, Strain/Indicator: WP2 UVRA, Metabolic Activation: NONE, Method: STANDARD PLATE) “inactive; negative”; (Test System: E.COLI, Strain/Indicator: WP2 UVRA, Metabolic Activation: R, L, S-9, AROCLOR 1254, Method: STANDARD PLATE) “inactive; negative”; (Test System: ESCHERICHIA COLI, Strain/Indicator: WP2 UVR A, Metabolic Activation: NONE, Method: STANDARD PLATE) “inactive; negative”. Moreover, for the setting “Test System: ESCHERICHIA COLI, Strain/Indicator: WP2 UVR A, Metabolic Activation: RAT LIVER S-9, AROCLOR 1254, Method: STANDARD PLATE”, the mutagenic call was “inactive; negative”.

In the case of `CCCCCCC(=O)O`, the mutagenic call was “inactive; negative” (Test System: AMES SALMONELLA TYPHIMURIUM, Strain/Indicator: TA97, Metabolic Activation: HAMSTER, LIVER, S-9, AROCLOR 1254 (10%), Method: PREINCUBATION); “inactive; negative” (Test System: AMES SALMONELLA TYPHIMURIUM, Strain/Indicator: TA97, Metabolic Activation: HAMSTER, LIVER, S-9, AROCLOR 1254 (30%), Method: PREINCUBATION); “inactive; negative” under setting [3]; “inactive; negative” (Test System: AMES SALMONELLA TYPHIMURIUM, Strain/Indicator: TA97, Metabolic Activation: RAT, LIVER, S-9, AROCLOR 1254 (10%), Method: PREINCUBATION); “inactive; negative” (Test System: AMES SALMONELLA TYPHIMURIUM, Strain/Indicator: TA97, Metabolic Activation: RAT, LIVER, S-9, AROCLOR 1254 (30%), Method: PREINCUBATION); “inactive; negative” (Test System: AMES SALMONELLA TYPHIMURIUM, Strain/Indicator: TA98, Metabolic Activation: HAMSTER, LIVER, S-9, AROCLOR 1254 (10%), Method: PREINCUBATION). In addition, the mutagenic call reads like this: (Test System: AMES SALMONELLA TYPHIMURIUM, Strain/Indicator: TA98, Metabolic Activation: HAMSTER, LIVER, S-9, AROCLOR 1254 (30%), Method: PREINCUBATION) “inactive; negative”; under setting [4], “inactive; negative”; (Test System: AMES SALMONELLA TYPHIMURIUM, Strain/Indicator: TA98, Metabolic Activation: RAT, LIVER, S-9, AROCLOR 1254 (10%), Method: PREINCUBATION) “inactive; negative”; (Test System: AMES SALMONELLA TYPHIMURIUM, Strain/Indicator: TA98, Metabolic Activation: RAT, LIVER, S-9, AROCLOR 1254 (30%), Method: PREINCUBATION) “inactive; negative”; (Test System: AMES SALMONELLA TYPHIMURIUM, Strain/Indicator: TA100, Metabolic Activation: HAMSTER, LIVER, S-9, AROCLOR 1254 (10%), Method: PREINCUBATION) “inactive; negative”; (Test System: AMES SALMONELLA TYPHIMURIUM, Strain/Indicator: TA100, Metabolic Activation: HAMSTER, LIVER, S-9, AROCLOR 1254 (30%), Method: PREINCUBATION) “inactive; negative”. Further, the mutagenic call reads like this: under setting [2], “inactive; negative”; (Test System: AMES SALMONELLA TYPHIMURIUM, Strain/Indicator: TA100, Metabolic Activation: RAT, LIVER, S-9, AROCLOR 1254 (10%), Method: PREINCUBATION) “inactive; negative”; (Test System: AMES SALMONELLA TYPHIMURIUM, Strain/Indicator: TA100, Metabolic Activation: RAT, LIVER, S-9, AROCLOR 1254 (30%), Method: PREINCUBATION) “inactive; negative”; (Test System: AMES SALMONELLA TYPHIMURIUM, Strain/Indicator: TA1535, Metabolic Activation: HAMSTER, LIVER, S-9, AROCLOR 1254 (10%), Method: PREINCUBATION) “inactive; negative”; (Test System: AMES SALMONELLA TYPHIMURIUM, Strain/Indicator: TA1535, Metabolic Activation: HAMSTER, LIVER, S-9, AROCLOR 1254 (30%), Method: PREINCUBATION) “inactive; negative”; (Test System: AMES SALMONELLA TYPHIMURIUM, Strain/Indicator: TA1535, Metabolic Activation: NONE, Method: PREINCUBATION) “inactive; negative”. In addition, the mutagenic call is “inactive; negative” (Test System: AMES SALMONELLA TYPHIMURIUM, Strain/Indicator: TA1535, Metabolic Activation: RAT, LIVER, S-9, AROCLOR 1254 (10%), Method: PREINCUBATION); “inactive; negative” (Test System: AMES SALMONELLA TYPHIMURIUM, Strain/Indicator: TA1535, Metabolic Activation: RAT, LIVER, S-9, AROCLOR 1254 (30%), Method: PREINCUBATION); “inactive; negative” (Test System: AMES SALMONELLA TYPHIMURIUM, Strain/Indicator: TA1537, Metabolic Activation: HAMSTER, LIVER, S-9, AROCLOR 1254 (30%), Method: PREINCUBATION); “inactive; negative” (Test System: AMES SALMONELLA TYPHIMURIUM, Strain/Indicator: TA1537, Metabolic Activation: NONE, Method: PREINCUBATION); “inactive; negative” (Test System: AMES SALMONELLA TYPHIMURIUM, Strain/Indicator: TA1537, Metabolic Activation: RAT, LIVER, S-9, AROCLOR 1254 (30%), Method: PREINCUBATION).

The values are drawn from PubChem BioAssay AID1259407 (Chemical Carcinogenesis Research Information System (CCRIS), 2018).
